In patent US20120121591A1 (priority 2009, published 2012):

Key:
Assay type in all cases: cell-based
[1] = system: IFN-g secretion from T cells in human whole blood; conditions: read-out: WB (IFNg) IC50 (nM, Avg)
hKv1.3 = hKv1.3 (Homo sapiens, UniProt P22001); assay: cell-based; conditions: Kv1.3 (IWQ) IC50 (nM, Avg)
[2] = system: IL-2 secretion from T cells in human whole blood; conditions: read-out: WB (IL-2) IC50 (nM, Avg)

hKv1.3, sequence (P22001 whole entry): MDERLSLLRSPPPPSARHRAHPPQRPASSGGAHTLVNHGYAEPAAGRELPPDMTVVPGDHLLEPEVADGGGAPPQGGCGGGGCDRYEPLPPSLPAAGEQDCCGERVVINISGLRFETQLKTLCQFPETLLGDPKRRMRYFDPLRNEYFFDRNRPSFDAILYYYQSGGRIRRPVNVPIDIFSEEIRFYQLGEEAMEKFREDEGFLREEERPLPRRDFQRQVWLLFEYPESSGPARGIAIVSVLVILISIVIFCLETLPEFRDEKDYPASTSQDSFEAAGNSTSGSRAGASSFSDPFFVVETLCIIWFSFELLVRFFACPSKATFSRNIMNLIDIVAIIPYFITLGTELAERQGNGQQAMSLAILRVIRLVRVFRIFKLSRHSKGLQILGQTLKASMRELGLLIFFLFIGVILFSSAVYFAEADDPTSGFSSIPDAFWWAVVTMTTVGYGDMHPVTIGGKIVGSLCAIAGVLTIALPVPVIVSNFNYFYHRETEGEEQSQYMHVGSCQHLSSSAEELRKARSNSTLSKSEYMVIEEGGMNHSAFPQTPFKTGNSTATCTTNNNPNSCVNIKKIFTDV

Row | SMILES | IC50 [1] [nM] | IC50 (hKv1.3) [nM] | IC50 [2] [nM]
1 | CC[C@H](C)[C@@H]1NC(=O)[C@@H](NC(=O)[C@H](CO)NC(=O)[C@@H](N)CCCNC(=N)N)CSSC[C@@H](C(=O)O)NC(=O)[C@H]([C@@H](C)O)NC(=O)CNC(=O)[C@@H]2CSSC[C@@H]3NC(=O)[C@H](CCC(N)=O)NC(=O)[C@H](Cc4ccccc4)NC(=O)[C@H](C)NC(=O)[C@H]([C@@H](C)O)NC(=O)[C@H](CSSC[C@H](NC(=O)[C@H](CCCNC(=N)N)NC(=O)[C@H](CO)NC(=O)[C@H](CC(C)C)NC(=O)[C@H](CCCNC(=N)N)NC(=O)[C@H](Cc4ccc(O)cc4)NC(=O)[C@H](CCCCN)NC(=O)[C@H](CCSC)NC(=O)[C@H](CO)NC(=O)[C@H](Cc4c[nH]cn4)NC(=O)[C@H](CCCCN)NC3=O)C(=O)N[C@@H](CCCNC(=N)N)C(=O)N[C@@H](CCCCN)C(=O)N[C@@H]([C@@H](C)O)C(=O)N2)NC(=O)[C@H](CCCNC(=N)N)NC(=O)[C@H](CO)NC(=O)[C@H](CCCCN)NC(=O)[C@@H]2CCCN2C(=O)[C@H]([C@@H](C)CC)NC(=O)[C@H]([C@@H](C)O)NC(=O)[C@H](CC(=O)O)NC1=O [[Arg27]ShK] | 59.7 | 100 | 13
2 | CC[C@H](C)[C@@H]1NC(=O)[C@@H](NC(=O)[C@H](CO)NC(=O)[C@@H](N)CCCNC(=N)N)CSSC[C@@H](C(N)=O)NC(=O)[C@H]([C@@H](C)O)NC(=O)CNC(=O)[C@@H]2CSSC[C@@H]3NC(=O)[C@H](CCCCN)NC(=O)[C@H](Cc4ccccc4)NC(=O)[C@H](C)NC(=O)[C@H]([C@@H](C)O)NC(=O)[C@H](CSSC[C@H](NC(=O)[C@H](Cc4ccccc4)NC(=O)[C@H](CO)NC(=O)[C@H](CC(C)C)NC(=O)[C@H](CCCNC(=N)N)NC(=O)[C@H](Cc4ccc(O)cc4)NC(=O)[C@H](CCCCN)NC(=O)[C@H](CC(=O)O)NC(=O)[C@H](CO)NC(=O)[C@H](Cc4c[nH]cn4)NC(=O)[C@H](CCCCN)NC3=O)C(=O)N[C@@H](CCCNC(=N)N)C(=O)N[C@@H](CCCCN)C(=O)N[C@@H]([C@@H](C)O)C(=O)N2)NC(=O)[C@H](CCCNC(=N)N)NC(=O)[C@H](CO)NC(=O)[C@H](CCCCN)NC(=O)[C@@H]2CCCN2C(=O)[C@H]([C@@H](C)CC)NC(=O)[C@H]([C@@H](C)O)NC(=O)[C@H](CC(=O)O)NC1=O [[Lys16, Asp21]ShK-amide] | 3.63 | 0.35 | 2.31
3 | CC[C@H](C)[C@@H]1NC(=O)[C@@H](NC(=O)[C@H](CO)NC(=O)[C@@H](N)CCCNC(=N)N)CSSC[C@@H](C(=O)O)NC(=O)[C@H]([C@@H](C)O)NC(=O)CNC(=O)[C@@H]2CSSC[C@@H]3NC(=O)[C@H](CCC(N)=O)NC(=O)[C@H](Cc4ccccc4)NC(=O)[C@H](C)NC(=O)[C@H]([C@@H](C)O)NC(=O)[C@H](CSSC[C@H](NC(=O)[C@H](Cc4ccccc4)NC(=O)[C@H](CO)NC(=O)[C@H](CC(C)C)NC(=O)[C@H](CCCNC(=N)N)NC(=O)[C@H](Cc4ccc(O)cc4)NC(=O)[C@H](CCCCN)NC(=O)[C@H](CCSC)NC(=O)[C@H](CCCNC(=N)N)NC(=O)[C@H](Cc4c[nH]cn4)NC(=O)[C@H](CCCCN)NC3=O)C(=O)N[C@@H](CCCNC(=N)N)C(=O)N[C@@H](CCCCN)C(=O)N[C@@H]([C@@H](C)O)C(=O)N2)NC(=O)[C@H](CCCNC(=N)N)NC(=O)[C@H](CO)NC(=O)[C@H](CCCCN)NC(=O)[C@@H]2CCCN2C(=O)[C@H]([C@@H](C)CC)NC(=O)[C@H]([C@@H](C)O)NC(=O)[C@H](CC(=O)O)NC1=O [[Arg20]ShK] | 31.3 | 3.84 | 36.9
